Measurements reported in ChEMBL document CHEMBL3046735, “11-Chloro-3-methyl-3H-imidazo[4,5-a]acridine (CMIA) as a potent and selective antimicrobial agent against clinical isolates of highly antibiotic-resistant Acinetobacter baumannii” (Med Chem Res, 2012).
Values after ≈ are worked out from the molar mass of the structure shown.

How the values were obtained:
[1] = test system: Escherichia coli; experiment: Bactericidal activity against Escherichia coli urine isolate after 24 hr by NCCLS dilution tube method; type: functional
[2] = test system: Klebsiella pneumoniae; experiment: Bactericidal activity against Klebsiella pneumoniae PTCC 1053 after 24 hr by NCCLS dilution tube method; type: functional; details: PTCC 1053, 24 h
[3] = test system: Escherichia coli; experiment: Bactericidal activity against Escherichia coli PTCC 1338 after 24 hr by NCCLS dilution tube method; type: functional; details: PTCC 1338, 24 h
[4] = test system: Staphylococcus epidermidis; experiment: Bactericidal activity against Staphylococcus epidermidis eye isolate after 24 hr by NCCLS dilution tube method; type: functional
[5] = test system: Staphylococcus aureus; experiment: Bactericidal activity against Staphylococcus aureus PTCC 1074 after 24 hr by NCCLS dilution tube method; type: functional; details: PTCC 1074, 24 h
[6] = test system: Acinetobacter baumannii; experiment: Bactericidal activity against multidrug-resistant Acinetobacter baumannii urine isolate after 24 hr by NCCLS dilution tube method; type: functional
[7] = test system: Pseudomonas aeruginosa; experiment: Bactericidal activity against Pseudomonas aeruginosa wound isolate after 24 hr by NCCLS dilution tube method; type: functional
[8] = test system: Klebsiella pneumoniae; experiment: Bactericidal activity against Klebsiella pneumoniae wound isolate after 24 hr by NCCLS dilution tube method; type: functional
[9] = test system: Pseudomonas aeruginosa; experiment: Bactericidal activity against Pseudomonas aeruginosa urine isolate after 24 hr by NCCLS dilution tube method; type: functional
[10] = test system: Acinetobacter baumannii; experiment: Bactericidal activity against multidrug-resistant Acinetobacter baumannii bronchi isolate after 24 hr by NCCLS dilution tube method; type: functional
[11] = test system: Escherichia coli; experiment: Bactericidal activity against Escherichia coli bronchi isolate after 24 hr by NCCLS dilution tube method; type: functional
[12] = test system: Staphylococcus aureus; experiment: Bactericidal activity against Staphylococcus aureus urine isolate after 24 hr by NCCLS dilution tube method; type: functional
[13] = Octanol-water partition coefficient, log D of the compound at pH 7.4 after 6 hr by shake flask method; type: physicochemical
[14] = test system: Klebsiella pneumoniae; experiment: Bactericidal activity against Klebsiella pneumoniae urine isolate after 24 hr by NCCLS dilution tube method; type: functional
[15] = test system: Acinetobacter baumannii; experiment: Bactericidal activity against multidrug-resistant Acinetobacter baumannii wound isolate after 24 hr by NCCLS dilution tube method; type: functional
[16] = test system: Staphylococcus aureus; experiment: Bactericidal activity against Staphylococcus aureus wound isolate after 24 hr by NCCLS dilution tube method; type: functional
[17] = test system: Pseudomonas aeruginosa; experiment: Bactericidal activity against Pseudomonas aeruginosa PTCC 1431 after 24 hr by NCCLS dilution tube method; type: functional; details: PTCC 1431, 24 h
[18] = test system: Staphylococcus saprophyticus; experiment: Bactericidal activity against Staphylococcus saprophyticus bronchi isolate after 24 hr by NCCLS dilution tube method; type: functional

Structure (SMILES) | MBC [1] | MBC [2] | MBC [3] | MBC [4] | MBC [5] | MBC [6] | MBC [7] | MBC [8] | MBC [9] | MBC [10] | MBC [11] | MBC [12] | logD at 6 h [13] | MBC [14] | MBC [15] | MBC [16] | MBC [17] | MBC [18]
Cn1cnc2c3c(Cl)c4ccccc4nc3ccc21 | 56.4 mg/L (≈ 211 µM) | 12.5 mg/L (≈ 46.7 µM) | 6.25 mg/L (≈ 23.3 µM) | 73.7 mg/L (≈ 275 µM) | 3.1 mg/L (≈ 11.6 µM) | 10.9 mg/L (≈ 40.7 µM) | 75 mg/L (≈ 280 µM) | 85.7 mg/L (≈ 320 µM) | 85 mg/L (≈ 317 µM) | 4.7 mg/L (≈ 17.6 µM) | 89.3 mg/L (≈ 334 µM) | 91 mg/L (≈ 340 µM) | 0.52 | 47.9 mg/L (≈ 179 µM) | 2 mg/L (≈ 7.47 µM) | 72.3 mg/L (≈ 270 µM) | 75 mg/L (≈ 280 µM) | 93.7 mg/L (≈ 350 µM)
CCCn1cnc2c3c(Cl)c4ccccc4nc3ccc21 |  | 25 mg/L (≈ 84.5 µM) | 25 mg/L (≈ 84.5 µM) |  | 6.25 mg/L (≈ 21.1 µM) |  |  |  |  |  |  |  | 1.09 |  |  |  | > 100 mg/L | 
CCCCCn1cnc2c3c(Cl)c4ccccc4nc3ccc21 |  | 25 mg/L (≈ 77.2 µM) | 50 mg/L (≈ 154 µM) |  | 12.5 mg/L (≈ 38.6 µM) |  |  |  |  |  |  |  | 1.48 |  |  |  | > 100 mg/L | 
CC1(C)S[C@@H]2[C@H](NC(=O)[C@H](N)c3ccc(O)cc3)C(=O)N2[C@H]1C(=O)O [AMOXICILLIN] | 76.2 mg/L (≈ 209 µM) |  |  | > 100 mg/L |  | > 100 mg/L | > 100 mg/L | > 100 mg/L | > 100 mg/L | > 100 mg/L | > 100 mg/L | > 100 mg/L |  | > 100 mg/L | > 100 mg/L | > 100 mg/L |  | > 100 mg/L
C=CC1=C(C(=O)O)N2C(=O)[C@@H](NC(=O)/C(=N\OCC(=O)O)c3csc(N)n3)[C@H]2SC1 [CEFIXIME] | 12.1 mg/L (≈ 26.7 µM) |  |  | 28.7 mg/L (≈ 63.3 µM) |  | 75 mg/L (≈ 165 µM) | 96.9 mg/L (≈ 214 µM) | 44.6 mg/L (≈ 98.4 µM) | 20 mg/L (≈ 44.1 µM) | 87.5 mg/L (≈ 193 µM) | 23.1 mg/L (≈ 50.9 µM) | 45.2 mg/L (≈ 99.7 µM) |  | 20.8 mg/L (≈ 45.9 µM) | 82.8 mg/L (≈ 183 µM) | 33.1 mg/L (≈ 73 µM) |  | 24.5 mg/L (≈ 54 µM)
CO/N=C(\C(=O)N[C@@H]1C(=O)N2C(C(=O)O)=C(COC(C)=O)CS[C@H]12)c1csc(N)n1 [CEFOTAXIME] | 17.3 mg/L (≈ 38 µM) |  |  | 75 mg/L (≈ 165 µM) |  | 90.6 mg/L (≈ 199 µM) | 81.2 mg/L (≈ 178 µM) | 51.8 mg/L (≈ 114 µM) | 16.3 mg/L (≈ 35.8 µM) | 96.9 mg/L (≈ 213 µM) | 24.5 mg/L (≈ 53.8 µM) | 77.2 mg/L (≈ 169 µM) |  | 25 mg/L (≈ 54.9 µM) | 95.8 mg/L (≈ 210 µM) | 12.7 mg/L (≈ 27.9 µM) |  | 95 mg/L (≈ 209 µM)
CC(C)(O/N=C(\C(=O)N[C@@H]1C(=O)N2C(C(=O)[O-])=C(C[n+]3ccccc3)CS[C@H]12)c1csc(N)n1)C(=O)O [CEFTAZIDIME] | 14.4 mg/L (≈ 26.3 µM) |  |  | 73.7 mg/L (≈ 135 µM) |  | 93.7 mg/L (≈ 171 µM) | 90.6 mg/L (≈ 166 µM) | 92.8 mg/L (≈ 170 µM) | 43.8 mg/L (≈ 80.1 µM) | 90.6 mg/L (≈ 166 µM) | 45.4 mg/L (≈ 83.1 µM) | 80.2 mg/L (≈ 147 µM) |  | 22.9 mg/L (≈ 41.9 µM) | 91.7 mg/L (≈ 168 µM) | 63.5 mg/L (≈ 116 µM) |  | 82.4 mg/L (≈ 151 µM)
NC[C@H]1O[C@H](O[C@H]2[C@H](O)[C@@H](O[C@H]3O[C@H](CO)[C@@H](O)[C@H](N)[C@H]3O)[C@H](N)C[C@@H]2N)[C@H](O)[C@@H](O)[C@@H]1O [KANAMYCIN] | 84.4 mg/L (≈ 174 µM) |  |  | 25 mg/L (≈ 51.6 µM) |  | > 100 mg/L | 48.4 mg/L (≈ 99.9 µM) | 16 mg/L (≈ 33 µM) | 47.9 mg/L (≈ 98.9 µM) | > 100 mg/L | 85.5 mg/L (≈ 176 µM) | 55.1 mg/L (≈ 114 µM) |  | 12.5 mg/L (≈ 25.8 µM) | > 100 mg/L | 17.9 mg/L (≈ 36.9 µM) |  | 40 mg/L (≈ 82.6 µM)
CCn1cc(C(=O)O)c(=O)c2ccc(C)nc21 [NALIDIXIC ACID] | 24 mg/L (≈ 103 µM) |  |  | > 100 mg/L |  | > 100 mg/L | > 100 mg/L | 25.9 mg/L (≈ 112 µM) | > 100 mg/L | > 100 mg/L | 22.7 mg/L (≈ 97.7 µM) | > 100 mg/L |  | 29.1 mg/L (≈ 125 µM) | > 100 mg/L | 81.6 mg/L (≈ 351 µM) |  | > 100 mg/L
CCn1cc(C(=O)O)c(=O)c2cc(F)c(N3CCNCC3)cc21 [NORFLOXACIN] | 7.3 mg/L (≈ 22.9 µM) |  |  | 75 mg/L (≈ 235 µM) |  | 62.5 mg/L (≈ 196 µM) | 25.8 mg/L (≈ 80.8 µM) | 50 mg/L (≈ 157 µM) | 13.7 mg/L (≈ 42.9 µM) | 37.5 mg/L (≈ 117 µM) | 12.2 mg/L (≈ 38.2 µM) | 11.5 mg/L (≈ 36 µM) |  | 11.5 mg/L (≈ 36 µM) | 41.7 mg/L (≈ 131 µM) | 9.8 mg/L (≈ 30.7 µM) |  | 50 mg/L (≈ 157 µM)
CN(C)[C@@H]1C(O)=C(C(N)=O)C(=O)[C@@]2(O)C(O)=C3C(=O)c4c(O)cccc4[C@@](C)(O)[C@H]3C[C@@H]12 [TETRACYCLINE] | 20.4 mg/L (≈ 45.9 µM) |  |  | 81.2 mg/L (≈ 183 µM) |  | 87.5 mg/L (≈ 197 µM) | 54.7 mg/L (≈ 123 µM) | 30.3 mg/L (≈ 68.2 µM) | 21.2 mg/L (≈ 47.7 µM) |  |  | 26.3 mg/L (≈ 59.2 µM) |  | 26 mg/L (≈ 58.5 µM) |  | 12.5 mg/L (≈ 28.1 µM) |  | 
NC[C@H]1O[C@H](O[C@H]2[C@H](O)[C@@H](O[C@H]3O[C@H](CO)[C@@H](O)[C@H](N)[C@H]3O)[C@H](N)C[C@@H]2N)[C@H](N)C[C@@H]1O [TOBRAMYCIN] | 64.3 mg/L (≈ 138 µM) |  |  | 50 mg/L (≈ 107 µM) |  | 78.1 mg/L (≈ 167 µM) | 26.5 mg/L (≈ 56.7 µM) | 24.1 mg/L (≈ 51.5 µM) | 13.7 mg/L (≈ 29.3 µM) | 68 mg/L (≈ 145 µM) | 74 mg/L (≈ 158 µM) | 11.8 mg/L (≈ 25.2 µM) |  | 28.1 mg/L (≈ 60.1 µM) | 83.3 mg/L (≈ 178 µM) | 17.3 mg/L (≈ 37 µM) |  | 25 mg/L (≈ 53.5 µM)
